The record followed here is patent US10961202B2, “Bis-benzimidazole compounds and methods of using the same” (THE SCRIPPS RESEARCH INSTITUTE, priority 2017, dated 2021).

One assay has as its system r(CUG)12-MBNL1 complex. The assay is described as follows: Inhibition of the r(CUG)12-MBNL1 complex measured by TR-FRET. The format is biochemical. To be noted: 80 nM RNA, 60 nM MBNL1-His6.
The test system of assay [1] is MBNL1 exon 5 inclusion in DM1 myotubes. The assay is described as follows: Myotube splicing rescue assay (MBNL1 exon 5 inclusion). The format is cell-based, human. The conditions noted are these: 48-hour incubation.

Usually IC50 stands for the concentration needed to halve the response being measured. A higher IC50 goes with weaker potency. As to `O=C(NCCN1CCN(CCNC(=O)c2ccc3nc(-c4ccc(-c5nc6ccc(C(=O)NCCN7CCCCC7)cc6[nH]5)cc4)[nH]c3c2)CC1)NCCN1CCN(CCNC(=O)c2ccc3nc(-c4ccc(-c5nc6ccc(C(=O)NCCN7CCCCC7)cc6[nH]5)cc4)[nH]c3c2)CC1` [Compound 406, N,N′-((((carbonylbis(azanediyl))bis(ethane-2,1-diyl))bis(piperazine-4,1-diyl))bis(ethane-2,1-diyl))bis(2-(4-(6-((2-(piperidin-1-yl)ethyl)carbamoyl)-1H-benzo[d]imidazol-2-yl)phenyl)-1H-benzo[d]imidazole-6-carboxamide)], in the assay on r(CUG)12-MBNL1 complex (Table M), 3.03 µM corresponded to half-maximal inhibition (IC50). In assay [1], the “MBNL1 % splicing rescue at 1 μM” value is listed as 9.4% and the “MBNL1 % splicing rescue at 10 μM” value turned out to be 54.3%.

`[N-]=[N+]=NCCN1CCN(CCNC(=O)c2ccc3nc(-c4ccc(-c5nc6ccc(C(=O)NCCN7CCCCC7)cc6[nH]5)cc4)[nH]c3c2)CC1` [Compound 172, N-(2-(4-(2-azidoethyl)piperazin-1-yl)ethyl)-2-(4-(6-((2-(piperidin-1-yl)ethyl)carbamoyl)-1H-benzo[d]imidazol-2-yl)phenyl)-1H-benzo[d]imidazole-6-carboxamide]: it took 28.3 µM to reach half-maximal inhibition in the assay on r(CUG)12-MBNL1 complex (Table M) (IC50). Also, in assay [1], the “MBNL1 % splicing rescue at 1 μM” value worked out at 22.1% and the “MBNL1 % splicing rescue at 10 μM” value was found to be 14.2%.

Regarding `CN(C)CCCOc1ccc2nc(-c3ccc(-c4nc5ccc(C(=O)NCCNC(=N)N)cc5[nH]4)cc3)[nH]c2c1` [Compound 264, 2-(4-(6-(3-(dimethylamino)propoxy)-1H-benzo[d]imidazol-2-yl)phenyl)-N-(2-guanidinoethyl)-1H-benzo[d]imidazole-6-carboxamide], the IC50 in the assay with r(CUG)12-MBNL1 complex (Table M) turned out to be 6.03 µM. Further, in assay [1], the “MBNL1 % splicing rescue at 10 μM” value was −23.5%.

The molecule `c1cc(-c2nc3cc(-c4ccc5[nH]c(-c6ccc(OCCN7CCCCC7)cc6)nc5c4)ccc3[nH]2)ccc1OCCN1CCCCC1` [Compound 350] displayed an IC50 with r(CUG)12-MBNL1 complex (Table M) of 16.9 µM. In addition, the “MBNL1 % splicing rescue at 1 μM” value in assay [1] is given as 47.2%.

In the assay with r(CUG)12-MBNL1 complex (Table L), `Nc1ccc(-c2nc3cc(-c4ccc5[nH]c(-c6ccc(NC7=NCCN7C7=NCCN7)cc6)nc5c4)ccc3[nH]2)cc1` [Compound 160] returned an IC50 of 19.2 µM. Also, in assay [1], the “MBNL1 % splicing rescue at 10 μM” value is listed as 63.0%.

Take `NCCN1CCN(CCNC(=O)c2ccc3nc(-c4ccc(-c5nc6ccc(C(=O)NCCN7CCCCC7)cc6[nH]5)cc4)[nH]c3c2)CC1` [Compound 185, N-(2-(4-(2-aminoethyl)piperazin-1-yl)ethyl)-2-(4-(6-((2-(piperidin-1-yl)ethyl)carbamoyl)-1H-benzo[d]imidazol-2-yl)phenyl)-1H-benzo[d]imidazole-6-carboxamide]: in the assay with r(CUG)12-MBNL1 complex (Table M), the IC50 came to 8.13 µM. For the same molecule, the “MBNL1 % splicing rescue at 10 μM” value in assay [1] worked out at 39.2%.

As for `COc1cc(-c2nc3ccc(C(=O)NCCN(C)C)cc3[nH]2)c(OC)cc1-c1nc2cc(OCCCN(C)C)ccc2[nH]1` [Compound 298], inhibition in the assay on r(CUG)12-MBNL1 complex (Table M) was half-maximal at 23.5 µM (IC50). The “MBNL1 % splicing rescue at 10 μM” value in assay [1] is on record as −41.8%.

The molecule `CN(C)CCCOc1c(F)cc2nc(-c3ccc(-c4nc5cc(F)c(OCCCN(C)C)c(F)c5[nH]4)cc3)[nH]c2c1F` [Compound 273] displayed a half-inhibitory concentration (IC50) in the assay with r(CUG)12-MBNL1 complex (Table M) of 6.1 µM. In addition, the “MBNL1 % splicing rescue at 10 μM” value in assay [1] was −15.3%.

As to `O=C(NCCN1CCCCC1)c1ccc(-c2nc3cc(-c4ccc5[nH]c(-c6ccc(C(=O)NCCN7CCCCC7)cc6)nc5c4)ccc3[nH]2)cc1` [Compound 116], in the assay with r(CUG)12-MBNL1 complex (Table L), inhibition was half-maximal at 5.3 µM (IC50). In addition, in assay [1], the “MBNL1 % splicing rescue at 10 μM” value is reported as 74.7%.

For the molecule `CN(C)CCCCCOc1ccc2nc(-c3ccc(-c4nc5ccc(OCCCCCN(C)C)cc5[nH]4)cc3)[nH]c2c1` [Compound 192], the 50% inhibitory concentration (IC50) with r(CUG)12-MBNL1 complex (Table M) worked out at 12.9 µM. Further, the “MBNL1 % splicing rescue at 10 μM” value in assay [1] was 111.7%.

`CN(C)CCCOc1ccc2nc(-c3ccc(-c4nc5ccc(OCCCC(=O)OC(C)(C)C)cc5[nH]4)cc3)[nH]c2c1` [Compound 252, tert-butyl 4-((2-(4-(5-(3-(dimethylamino)propoxy)-1H-benzo[d]imidazol-2-yl)phenyl)-1H-benzo[d]imidazol-5-yl)oxy)butanoate]: the midpoint of inhibition with r(CUG)12-MBNL1 complex (Table M), the IC50, lay at 18.9 µM. In addition, the “MBNL1 % splicing rescue at 10 μM” value in assay [1] amounted to 13.0%.
